Laboratory results: patent publication US11197856B2, “Bicyclic compounds and methods for their use in treating autism” (priority 2013, dated 2021)

Experiments:
[1] = system: fmr1-knockout hippocampal neurons; assay: Dendritic spine density in hippocampal cell cultures; assay type: cell-based, mice
Protocol: Hippocampal cell cultures were prepared from wild type and fmr1-knockout fetal mice (14-16 days of gestation). Briefly, mice were kill by cervical dislocation under chloroform anesthesia, and dissociated hippocampal cells were plated in 13 mm multiwell vessels (Falcon Primaria). A plating medium of MEM-Eagle's salts (supplied glutamine free) supplemented with 10% fetal bovine serum was used. Cultures were kept at 37° C. in a humidified 3% CO2 atmosphere. After 3d in vitro, green fluorescent protein (GFP) was added to monitor dendritic spine morphogenesis during time-course of culture (Ethell and Yamaguchi, 1999; Ethell et al., 2001, Henkemeyer et al., 2003). The dendritic spines usually formed between 7 and 14 days in vitro (DVI). By 14 DIV most dendritic protrusions were spines. The mean (±SD) spine density was measured as number of spines per micrometer and experiments were run in triplicate.

[2] = system: fmr1-knockout mice and wild-type mice; assay: Marble burying; assay type: in vivo
Protocol: Mice were placed in an enclosed environment with a bed of wood shavings. Ten (10) marbles were introduced into the environment, and the number of marbles buried was determined by visual observation (median±interquartile range (IQR)).

fmr1-knockout animals = assay: Sociability: bouts of sniffing a novel mouse; assay type: in vivo, mice; conditions: p<0.001
Protocol: Social recognition and social memory in mice were evaluated by the amount of time spent sniffing a novel mouse upon repeated exposures, to induce familiarity, and reinstatement of high levels of sniffing when a novel stimulus animal is introduced. We measured the number of bouts of sniffing in each of the groups of animals.

adult MeCP2+/- mice = assay: Ocular dominance (OD) plasticity, optical imaging of intrinsic signals; assay type: in vivo; conditions: 4 days monocular deprivation
Protocol: Adult (>P60) wild type (SVEV or BL6) and MeCP2 (+/−) mutant females (BL6) are used for this experiment. The wild type control group is composed of both wild type littermates of MeCP2+/− females or wild type age matched SVEV females. For monocular deprivation, animals are anesthetized with Avertin (0.016 ml/g) and the eyelids of one eye is sutured for 4 days. Prior to imaging, the suture is removed and the deprived eye re-opened. Only animals in which the deprivation sutures are intact and the condition of the deprived eye appears healthy are used for the imaging session. For cG-2-AllylP signaling activation, a solution containing cG-2-AllylP is injected intra-peritoneally (IP) daily for the entire period of deprivation. For the imaging sessions mice are anesthetized with urethane (1.3 g/kg; 20% of the full dosage is administered IP each 20-minutes up to the final dosage, 0.02 ml of cloroprothixene 1% is also injected together with the first administration). The skull is exposed and a custom-made plate is glued on the head to minimize movement. The skull is thinned over VI with a dremel drill and covered with an agarose solution in saline (1.3%) and a glass coverslip. During the imaging session, the animal is constantly oxygenated, its temperature maintained with a heating blanket and the eyes periodically treated with silicone oil; physiological conditions are constantly monitored. […]

p-ERK1/2 = assay: Phospho-flow cytometry of lymphocytes, p-ERK1/2; assay type: in vivo; conditions: fmr1-knockout mice; 15, 30, 60 and 240 minutes after a single treatment
Source text: Lymphocytes are isolated from five fmr1-knockout and five wild-type titter mate control mice, per study time after injection with cG-2-AllylP. Lymphocytes are examined for activation of two signaling effectors, p-ERK1/2 and p-Akt using phosphorylation status as a measure of activation by flow cytometry (phospho-flow).
1. Flow cytometry total and phosphorylated ERK in lymphocytes

[3] = system: genetic markers related to neuroplasticity; assay: PBBI in rats: neuroplasticity mRNA arrays; assay type: in vivo
Source text: The unilateral frontal PBBI model, which mimics the ballistic dynamics of a bullet or fragment wound to the head (Williams, 2003; Williams, 2006), was induced by stereotactic insertion of a custom probe through the right frontal cortex. A temporary cavity was formed by the rapid inflation/deflation (i.e. <40 msec) of an elastic balloon attached to the end of the probe. The PBBI apparatus consisted of a computer-controlled hydraulic pressure generator (Mitre Corp McLean, Va.), a PBBI probe and a stereotaxic frame equipped with a custom-designed probe holder as previously described (Lu, 2009; Williams, 2003). The injury severity was determined by the size of the balloon under control of the computerized hydraulic pressure. The balloon diameter calibrated to 0.63 cm expansion represented 10% of the total rat brain volume thus expressing a 10% PBBI. All surgeries were done under anaesthesia. Groups tested: Sham+vehicle, PBBI+vehicle, PBBI+cG-2-AllylP (30 mg/kg by oral gavage, 30 min post-injury, and again once daily until endpoint). AU procedures were approved by the Institutional Animal Care and Use Committee of WRAIR. Animals were housed in a facility accredited by the AAALAC.
cG-2-AllylP (or vehicle) was administered to the animals via oral gavage at a dose of 30 mg/kg.
cDNA was generated. From total RNA from individual animals using random primers. cDNA was plated unto a targeted PCR array produced by SA Biosciences and product was detected using SyBr green fluorescence. Ct levels were normalized to beta actin. Injury results were compared to sham to evaluate relative quantities (RQ) (n=6 per group).

SMILES: C=CC[C@]12CCCN1C(=O)CNC2=O [cG-2-AllylP, (8aS)-Allyl-hexahydropyrrolo[1,2-a]pyrazine-1,4-dione]
- spine density (mean±SD) ([1]; 0.5 nM, n=3): 0.36±0.02 number of spines per micromete
- spine density (mean±SD) ([1]; 5 nM): 0.25±0.03 number of spines per micromete
- spine density (mean±SD) ([1]; 50 nM): 0.27±0.10 number of spines per micromete
- marbles buried ([2]; fmr1-knockout animals): 80%
- number of marbles buried (median) ([2]; fmr1-knockout animals): 8 of 10 marbles
- marbles buried ([2]; wild-type mice): 100%
- number of marbles buried ([2]; wild-type mice): 10 out of 10
- bouts of sniffing (fmr1-knockout animals): about 21
- OD plasticity (adult MeCP2+/- mice): reduces the OD plasticity
- mean fluorescent intensity (MFI) for p-ERK1/2 (p-ERK1/2): decreases at all time points
- Gria 4 mRNA expression ([3]; 24 hr. time point after PBBI): significantly increased Gria 4
- BDNF mRNA expression (trend) ([3]; after PBBI): decreased BDNF
- Crem mRNA expression (trend) ([3]; after PBBI): decreased Crem
- NTF3 mRNA expression (trend) ([3]; after PBBI): decreased NTF3
- NTF4 mRNA expression (trend) ([3]; after PBBI): decreased NTF4
- Pcdh8 mRNA expression (trend) ([3]; after PBBI): decreased Pcdh8
- Pim1 mRNA expression (trend) ([3]; after PBBI): decreased Pim1
- Ppp3ca mRNA expression (trend) ([3]; after PBBI): increased Ppp3ca
